CCCCCCOC(=O)NC(=N)c1ccc(NCc2nc3cc(C(=O)N(CCC(=O)OCC)c4ccccn4)ccc3n2C)cc1.CS(=O)(=O)O
solubility (mole fraction)
Conditions | 287.37 K | 292.2 K | 297.95 K | 303.97 K | 308.88 K | 313.59 K | 318.4 K | 323.39 K
in DMAc | 0.0228 | 0.0241 | 0.0264 | 0.0285 | 0.0311 | 0.0338 | 0.0372 | 0.0403
in DMF | 0.0217 | 0.0229 | 0.0246 | 0.0269 | 0.0294 | 0.0318 | 0.035 | 0.0385
in ethanol | 0.00092 | 0.00116 | 0.00153 | 0.00208 | 0.00267 | 0.00343 | 0.00458 | 0.00626
in ethylene glycol | 0.00425 | 0.00524 | 0.00619 | 0.00786 | 0.00961 | 0.0112 | 0.0143 | 0.0179
in methanol | 0.0158 | 0.018 | 0.0224 | 0.0274 | 0.0333 | 0.0389 | 0.0471 | 0.055
